These results are taken from US9974782B2, “Phosphodiesterase inhibitors and uses thereof” (THE TRUSTEES OF COLUMBIA UNIVERSITY IN THE CITY OF NEW YORK, priority 2008, dated 2018).

In series [1] the test system is APP processing (APP, sAPPα, sAPPβ, CT83, CT99). As to the kind of experiment: Western blot of APP full length and fragments in brain. Further details: concentration or dose not given beside the values. The class given is in vivo, mouse. The source says:
Aβ originates from APP through a proteolytic process catalyzed by secretases, producing different fragments with characteristic functions^A24. APP is first cleaved by α and β secretases that generate soluble extracellular fragments, named α-APPs and β-APPs, and three forms of carboxyterminal fragments (CTFs): C83 by α-secretase cleavage, C89 and C99 by β-secretase cleavage^A25, A26. CTFs are substrates of γ-secretase generating C-terminal peptides of 57-58 residues (APP intracellular domain, AID) and Aβ fragments from CTFβ^A27. To assess whether the decrease in Aβ levels was related to changes in APP processing [see FIG. 20], western blot analyses on mice brain cortex for full length APP and its fragments was performed.
APP levels were found unchanged also in 7-10 months old transgenic mice (FIGS. 7B-7C). They have been treated with daily injections of sildenafil for 3 weeks at age of 3 months. […] Moreover, a decrease in sAPPβ in transgenic mice treated with sildenafil was observed (FIGS. 7B, 7E) showing a down-regulation of BACE activity. […] Thus, without being bound by theory, the reduction in Aβ levels by sildenafil is due to an action of the inhibitor onto α- and β-secretase activity.
Mice brains were homogenized in buffer (20 mM tris base, 1 mM EDTA, 1 mM EGTA, 250 mM sucrose) containing protease inhibitors. Part of the homogenates was ultracentrifugated at 100,000 g for 1 h and the supernatants were used to analyze the sAPPα and the sAPPβ fragments. The protein concentration in each homogenate was quantified to analyze the equal amounts of protein from each sample. Samples were loaded into the wells of a 4-12% Bis-Tris precast gel, electrophoresed and transferred according to manufacturer's protocol. After Ponceau S staining, membranes were washed and incubated in 5% non-fat milk powder in PBS for 1 h at room temperature. Then, they were incubated overnight at 4° C. with the following primary antibodies, diluted in goat serum 5% in PBS: mouse 22C11 for APP full length detection (1:4000, Sigma); mouse sAPPα and Swedish sAPPβ (1:4000 and 1:1000, IBL), rabbit AbD for CTFs (1:250, Zymed), mouse Tubulin as control (1:20.000, Sigma). After overnight incubation, membranes were washed 3 times in PBS for 30 minutes and incubated with goat anti-mouse or goat-anti-rabbit antibody, diluted in 5% non-fat milk powder in PBS (1:4000 and 1:2000). After 30 minutes washing in PBS, radiographic detection was performed after exposure to ECL (Pierce).
For orientation: A western blot detects proteins with antibodies after separation by electrophoresis.

In another series the test system is J20 mice. As to the kind of experiment: Fear conditioning and RAWM in J20 mice. Format: in vivo, mouse.
The conditions of series [2]: in vivo, cited from earlier work.
In series [3] the test system is hippocampal slices treated with Aβ42. As to the kind of experiment: LTP in hippocampal slices treated with 200 nM oligomeric Aβ42. The class given is cell-based, mouse. The conditions noted are these: YF012403 50 nM for 10 min prior to the θ-burst. Here is the method:
Following cutting hippocampal slices were transferred to a recording chamber where they were maintained at 29° C. and perfused with artificial cerebrospinal fluid (ACSF) continuously bubbled with 95% O2 and 5% CO2. The ACSF composition in mM was: 124.0 NaCl, 4.4 KCl, 1.0 Na2HPO4, 25.0 NaHCO3, 2.0 CaCl2, 2.0 MgSO4, 10.0 glucose. CA1 fEPSPs were recorded by placing both the stimulating and the recording electrodes in CA1 stratum radiatum. BST was assayed either by plotting the stimulus voltages against slopes of fEPSP, or by plotting the peak amplitude of the fiber volley against the slope of the fEPSP. A 15 min baseline was recorded every min at an intensity that evokes a response ˜35% of the maximum evoked response. LTP was induced using q-burst stimulation (4 pulses at 100 Hz, with the bursts repeated at 5 Hz and each tetanus including 3 ten-burst trains separated by 15 sec). Responses were recorded for 1 hr after tetanization and measured as field-excitatory-post-synaptic potential (fEPSP) slope expressed as percentage of baseline.
In these experiments YF012403 (the cyclopropyl lead compound) was directly given to the hippocampal slices through the perfusion system for 10 min prior to the theta burst. Aβ42 was given for 20 minutes prior to the theta burst. Oligomeric Aβ42 was prepared as described previously (Stine et al., 2003). […]

The mark [4] stands for this setting: 3-month-old APP/PS1 treated with sildenafil.
Where [5] appears, read: APP/PS1 at 7-10 months, sildenafil for 3 weeks at 3 months.

Molecules are shown by their SMILES. Entries after “also recorded” stand apart in the source; their conditions may differ. Where two headings read alike, the source gives them in different places.

As for `CCCc1nn(C)c2c(=O)[nH]c(-c3cc(S(=O)(=O)N4CCN(C)CC4)ccc3OCC)nc12` [sildenafil, 5-[2-ethoxy-5-(4-methyl-1-piperazinylsulphonyl)phenyl]-1-methyl-3-n-propyl-1,6-dihydro-7H-pyrazolo[4,3-d]pyrimidin-7-one], in series [1] (setting [4]), the “APP full length, % of control” value came out at 125.75±4.44%; the “CT83, % of control” value was determined as 74.5±6.73%; the “CT99, % of control” value came to 95.25±5.66%; the “sAPPα, % of control” value is 86.25±5.02%. Further, the “sAPPβ, % of control” value in series [1] (setting [4]) stood at 43.25±3.90%. In addition, in series [1] (setting [5]), the “APP full length, % of control” value is recorded as 107.4±3.88%; the “CT83, % of control” value worked out at 82.75±6.78%; the “CT99, % of control” value is listed as 87.2±7.63%; the “sAPPα, % of control” value was found to be 153.65±11.95%. The “sAPPβ, % of control” value in series [1] (setting [5]) was 25.6±2.83%. In addition, the “effect on contextual learning in words” value in the series on J20 mice (3 mg/kg i.p. immediately after training) was “improved contextual learning”. Moreover, the “effect on spatial working memory in words” value in the series on J20 mice (daily injection after training for 3 weeks) is reported as “improved spatial working memory”. For the same compound, in series [2], the “ability to cross the BBB in words” value is “reported to cross the blood brain barrier; also recorded: reported to cross the BBB”. Further, the “ability to cross the BBB in words” value in series [2] (listed as Sildenafil) was “reported to cross the BBB”.
Turning to `COc1ccc(CNc2c(CO)cnc3c(C4CC4)cc(C#N)cc23)cc1Cl` [YF012403, 4-(3-chloro-4-methoxybenzylamino)-8-cyclopropyl-3-(hydroxymethyl)-quinoline-6-carbonitrile], the “effect on LTP deficit in Aβ42-treated slices in words” value in series [3] is “ameliorates the LTP deficit; also recorded: ameliorated; also recorded: reverses LTP impairment”.
